Values quoted from earlier work as cited in patent US20250190808A1, “DEVICE AND METHOD FOR IM[…] TR[…] NETWORK FOR T[…] SEQUENCE, AND TRAINING DEVICE AND METHOD USING SAME” (LG MANAGEMENT DEVELOPMENT INSTITUTE CO., LTD., priority 2022, published 2025).
Like-named read-outs stand apart in the source and are kept apart here.

Experiments:
[1] = test system: MHC TYPE A*0101; settings: read-out: MHC BINDING (IC50)
[2] = test system: T-cell
[3] = test system: MHC TYPE A*0204; settings: read-out: MHC BINDING (IC50)
[4] = test system: MHC TYPE B*0101; settings: read-out: MHC BINDING (IC50)
[5] = biological target: MHC TYPE A*0201 (Homo sapiens, UniProt P04439, D140Y/D185E/D98H/E176V/E277Q/G131W/G231S/I119V/I121R/I166T/I218V/L300P/L318F/N151K/N90K/P208A/P217A/Q86G/Q94H/R138H/R169H/T345S); settings: read-out: MHC BINDING (IC50)

Sequence: GQIVTMFEA
- IC50 [1]: < 0.1 µM
- ACTIVATION OF T-CELL ([2]; MHC type A*0101): Negative

Sequence: MFEALPHII
- IC50 [3]: 12 µM

Sequence: MGQIVTMFE
- IC50 [4]: > 20 µM
- IC50 [5]: 0.021 µM
- ACTIVATION OF T-CELL ([2]; MHC type A*0201): Positive
